In patent US20040053292A1, “Proteins and dna sequences underlying these proteins used for treating inflammations” (priority 2000, published 2004) one finds proIL-1β activation data, which are given here for two compounds.

Peptide text beside a SMILES is read from it. * marks the point of attachment. Cbz = O=C(OCc1ccccc1)*; CH2F = FC*

The assay has as its system proIL-1β. As to the kind of experiment: in vitro pro-IL1β activation in THP.1 cell lysates incubated at 30° C., Western blotting. Format: biochemical, human. To be noted: lysates of LPS-prestimulated THP.1 cells at 30° C. As for the experimental part:
However, THP1 cells express caspase-5 even without LPS activation. FIG. 11c represents the results of experiments which emerge when cell lysates from THP.1 cells which have been prestimulated with LPS were incubated at 30° C. for the periods shown at the top in FIG. 11c. This is because caspase-1 activation is to be observed spontaneously when cytoplasmic cell extracts are heated to 30° C. The activation of caspase-1, caspase-5, caspase-9 and pro-IL1β, followed by Western blotting in the presence or absence of caspase inhibitors zVADfmk (50 μM), YVADfmk (5 μM) and proteasome inhibitor LLnL (50 μM) was measured as a function of time. Cytochrome C (1 ng) was added to activate Apaf-1 and caspase-9. The monoclonal antibodies employed to detect caspase-5 and caspase-9 each recognize the p20 subunit. The four sections of the picture in FIG. 11c depict the respective bands obtained by labeling with anti-caspase-1 antibody, anti-caspase-5 antibody, anti-caspase-9 antibody and anti-IL1β antibody. […]
Addition of the two caspase-1 inhibitors zVADfmk and YVADfmk blocked proIL-1β activation. […] Activation of pro-IL1β, caspase-1 and caspase-5 was measured both in the cell extracts (xt) and in the supernatants (SN). […] The cleavage of […] was detected by an antibody (anti-IL1β*) which specifically recognizes the cleaved form of pro-IL1β, i.e. IL1β*. […]
For orientation: Immunoblotting shows a protein as a band on a membrane.

In the case of YVADfmk, the proIL-1β activation entry (YVADfmk 5 μM) is reported as “blocked”.
As for `COC(=O)C[C@H](NC(=O)[C@H](C)NC(=O)[C@@H](NC(=O)OCc1ccccc1)C(C)C)C(=O)CF` [zVADfmk] (Cbz-Val-Ala-Asp(OMe)-CH2F), the proIL-1β activation entry (zVADfmk 50 μM) was “blocked”.
